The nature of data set [1]: NOVARTIS: Cytotoxicity against human hepatocellular carcinoma cell line (Huh7). It is filed as toxicity, cell-based, Huh-7. The conditions noted are these: Huh7 cells (hepatocellular carcinoma cell line).
The test system of data set [2] is Plasmodium falciparum. The data set can be described thus: NOVARTIS: Inhibition of Plasmodium falciparum 3D7 (drug-susceptible) proliferation in erythrocyte-based infection assay. It is filed as functional, organism-based. Conditions: Plasmodium falciparum, 3D7.
The subject of data set [3] is Plasmodium falciparum. The data set can be described thus: NOVARTIS: Inhibition of Plasmodium falciparum W2 (drug-resistant) proliferation in erythrocyte-based infection assay. It is filed as functional, organism-based. Conditions: Plasmodium falciparum, W2; read-out: EC50.

pEC50: −log10 of the molar value.

The term CC50 denotes the concentration that lowers cell viability or growth by half. A low value points to greater toxicity to the cells. The pEC50 is −log10 of the EC50, conventionally taken in molar units.

The compound `C=C[C@H]1CN2CC[C@H]1C[C@H]2[C@H](OC(C)=O)c1ccnc2ccccc12` came in with a CC50 in data set [1] above 10 µM. Further, the pEC50 is 5.84 in the data set with Plasmodium falciparum [2] and 6.23 in the data set with Plasmodium falciparum [3].
Turning to `CN(C)c1ccc(/C=C2\SC(=Nc3ccc(O)cc3)NC2=O)cc1`, the cytotoxic concentration (CC50) in data set [1] amounted to 8.59 µM. Further, the results for the pEC50 in the data set with Plasmodium falciparum [2] and in the data set on Plasmodium falciparum [3] were 5.94 and 6.28, respectively.
In the same order, the values of `COc1ccc2nc(C)cc(Nc3ccc(Oc4ccc(Cl)cc4)c(Cl)c3)c2c1` are 9.34 µM, 6.77 and 6.24.
In the same order, the values of `C/C=C/c1n(C)c2ccccc2[n+]1C` are above 10 µM, 6.30 and 6.23.
On to `O=C(CCl)Nc1ccc(Cl)cc1`, for which the CC50 in data set [1] stood at 5.7 µM. The pEC50 with Plasmodium falciparum [2] is 6.26; in the data set with Plasmodium falciparum [3] it was 6.47.
As to `COc1ccc(/C=C\c2nc(=O)c3ccccc3o2)cc1`, the CC50 in data set [1] is above 10 µM. In addition, the negative-log EC50 (pEC50) with Plasmodium falciparum [2] was 6.16; in the data set with Plasmodium falciparum [3] it was 6.23.
In the same order, the values of `CC(C)N1CCCC(C(=O)Nc2ccc(-c3nc4ccccc4[nH]3)cc2)C1` (configuration not stated) are above 10 µM, 6.01 and 6.23.
Consider `COc1cc(OC)cc(C(=O)N2CCN(Cc3cccc(Br)c3)CC2)c1`, for which the cytotoxic concentration (CC50) in data set [1] is above 100 µM. Besides, the pEC50 in the data set with Plasmodium falciparum [2] is below 4.90; in the data set on Plasmodium falciparum [3], 5.23.
In the same order, the values of `CCCCCCCn1c2c(c(=N)c3ccccc31)CCC2` are 3.86 µM, 6.56 and 6.64.
In the same order, the values of `COc1ccccc1NC(=O)CCN1CCCC(C)C1` (configuration not stated) are above 10 µM, below 5.78 and below 6.22.
In the same order, the values of `CCN(CC)CCN(C)C1CCc2c(c(C(=O)N3CCCC3)nn2C)C1` (configuration not stated) are 12.4 µM, below 6.37 and below 6.13.
In the case of `CN(C)c1cccc(Nc2cc(-c3ccc(CC(N)C(=O)O)cc3)nc3ccnn23)c1` (configuration not stated), in data set [1], the CC50 was above 10 µM. Also, the negative logarithm of the EC50 (pEC50) in the data set on Plasmodium falciparum [2] was 6.22; with Plasmodium falciparum [3], 6.23.
In the same order, the values of `CC1CCN(C(=O)C2CCCN(S(=O)(=O)c3ccc4[nH]c(-c5ccccc5)nc4c3)C2)CC1` (configuration not stated) are above 100 µM, below 4.90 and 5.22.
In the same order, the values of `COC(=O)C1=C(C)N(C)C(C)=C(C(=O)OC)C1c1ccc(C)cc1` are above 9.49 µM, below 6.09 and below 6.25.
In the same order, the values of `COc1ccc2cc(C(C)=NO)ccc2c1` are above 100 µM, below 4.90 and below 5.22.
In data set [1], `COc1ccccc1C(=O)NN=C(C)c1cccnc1` had a CC50 above 10 µM. Further, the values for the pEC50 in the data set on Plasmodium falciparum [2] and in the data set with Plasmodium falciparum [3] were below 5.90 and below 6.22, respectively.
In the same order, the values of `CSC1=NC(C)(C)CC2(CC(c3ccc(C)cc3)c3cc(Cl)c(O)cc3O2)N1` (configuration not stated) are above 10 µM, 6.00 and 6.22.
The compound `c1ccc2c(NC3CCCC3)nc(Nc3ccc4c(c3)OCO4)nc2c1` registered a CC50 in data set [1] of 12.8 µM. Also, the pEC50 was 6.28 with Plasmodium falciparum [2] and 6.12 with Plasmodium falciparum [3].
In the same order, the values of `C[n+]1c(-c2ccccc2)cc(-c2ccccc2)cc1-c1ccccc1` are above 10 µM, below 5.99 and below 6.23.
In the same order, the values of `CCCCOc1c2ccccc2nc2ccccc12` are above 10 µM, below 5.90 and below 6.23.
Consider `OC(CNc1cccc2ccccc12)Cn1c2ccccc2c2ccccc21` (configuration not stated), for which the 50% cytotoxic concentration (CC50) in data set [1] is 14.9 µM. Besides, the results for the pEC50 in the data set with Plasmodium falciparum [2] and with Plasmodium falciparum [3] were 5.59 and 6.05, respectively.
In the same order, the values of `CCCCCN(C(=O)c1cccc([N+](=O)[O-])c1)C(CC)c1nc2ccccc2c(=O)n1-c1ccccc1OC` (configuration not stated) are above 10 µM, below 5.90 and 6.23.
In the same order, the values of `Cc1oc2c(c1C(=O)N1CCN(C)CC1)C(=O)c1ccccc1C2=O` are 5.46 µM, 6.08 and 6.47.
In the same order, the values of `CCN(CC)CCCN(Cc1cc2cc(OC)ccc2[nH]c1=O)C(=S)Nc1ccc(C)cc1` are 33 µM, 5.47 and 5.69.
`CC(C)CNC(=O)c1cnc(NCCCn2ccnc2)nc1NCCc1ccccc1` showed a half-maximal cytotoxic concentration (CC50) in data set [1] above 10 µM. Besides, the figures for the pEC50 in the data set on Plasmodium falciparum [2] and with Plasmodium falciparum [3] were 6.22 and 6.21, respectively.
In the same order, the values of `COc1ccc([N+](=O)[O-])cc1-c1ccc(/C=C(\C#N)c2nn(CCO)c(N)c2C#N)o1` are above 10 µM, 6.06 and 6.22.
In the same order, the values of `COc1ccc(C2=NN(C(=O)CCC(=O)O)C(c3ccccc3F)C2)cc1` (configuration not stated) are above 10 µM, below 5.90 and 6.22.
In the same order, the values of `CCC(C(=O)Nc1sccc1C#N)c1ccccc1` (configuration not stated) are above 10 µM, below 6.01 and below 6.21.
For the compound `COc1ccc2[nH]cc(CCNC(=O)Oc3ccccc3)c2c1`, the CC50 in data set [1] was above 10 µM. The pEC50 with Plasmodium falciparum [2] is below 5.89; in the data set with Plasmodium falciparum [3] it was 6.22.
In the same order, the values of `CCOc1ccc2nc(C)cc(Nc3ccc(OCc4ccccc4Cl)cc3)c2c1` are 5.84 µM, 6.85 and 6.45.
Regarding `O=C(NCc1ccco1)C1CCCN(c2cccc3c2C(=O)N(CCc2cccc(F)c2)C3=O)C1` (configuration not stated), in data set [1], the CC50 is above 10 µM. In addition, the pEC50 in the data set with Plasmodium falciparum [2] is below 5.85; in the data set with Plasmodium falciparum [3], below 6.21.
For the compound `CCOC(=O)c1sc(NC(=O)CSc2nnc(CNC(=O)COc3ccc(Cl)cc3)n2C)c(C(=O)OCC)c1C`, the CC50 in data set [1] is above 10 µM. For the same compound, the pEC50 in the data set with Plasmodium falciparum [2] is 5.97; in the data set with Plasmodium falciparum [3], below 6.22.
In the same order, the values of `COc1cc(NC(C)CCCN(Cc2ccccc2OC)C(=O)Nc2ccccc2OC)c2ncccc2c1` (configuration not stated) are above 10 µM, 6.07 and 6.21.
In the same order, the values of `C=C(C)[C@@]12O[C@@H]1[C@@]1(C)C(=CC2=O)CC[C@@H](O)[C@@H]1C` are above 10 µM, 6.10 and 6.23.
In the same order, the values of `COc1ccc(-n2nc(C(C)(C)C)cc2NC(=O)CN(C(=O)c2ccc(C)c([N+](=O)[O-])c2)C(C)C)cc1` are 31.1 µM, 5.81 and 5.74.
In data set [1], `N#Cc1cc(Oc2ccc(-c3cnc4ccccc4n3)cc2)nc2ccccc12` returned a CC50 above 100 µM. Moreover, the values for the pEC50 in the data set on Plasmodium falciparum [2] and in the data set with Plasmodium falciparum [3] were below 4.90 and 5.21, respectively.
In the same order, the values of `c1ccc(-c2cc(NCCCN3CCOCC3)nc(-c3ccccn3)n2)nc1` are above 10 µM, below 5.99 and 6.23.
In the same order, the values of `O=C(Cn1c2ccccc2c(=O)c2ccc(Cl)cc21)Nc1cccc(Cl)c1` are above 10 µM, 6.03 and 6.23.
In the same order, the values of `CCCCCCN(C(=O)c1ccc(Cl)cc1)C(CC)c1nc2ccccc2c(=O)n1-c1ccccc1OC` (configuration not stated) are above 10 µM, 6.02 and 6.22.
With `CN(C)C(=O)NCCCCNc1ccnc2cc(Cl)ccc12`, the half-maximal cytotoxic concentration (CC50) in data set [1] was above 10 µM. In addition, the values for the pEC50 in the data set on Plasmodium falciparum [2] and in the data set on Plasmodium falciparum [3] were 6.00 and 6.22, respectively.
In the case of `CCCCCCN(C(=O)COCc1ccccc1)C(C)c1nc2ccccc2c(=O)n1-c1cccc(Cl)c1C` (configuration not stated), the CC50 in data set [1] is above 10 µM. The pEC50 with Plasmodium falciparum [2] is 5.93; with Plasmodium falciparum [3], 6.22.
As for `CC1CCN(c2nncc3ccccc23)CC1`, the CC50 in data set [1] was above 100 µM. The pEC50 in the data set on Plasmodium falciparum [2] was below 4.90; with Plasmodium falciparum [3], below 5.22.
In the same order, the values of `CN(CCCNc1ccnc2cc(Cl)ccc12)S(=O)(=O)c1ccc(Cl)c([N+](=O)[O-])c1` are 3.14 µM, 6.61 and 6.73.
In the same order, the values of `O=[N+]([O-])c1ccc(-c2nc3ccccc3n2-c2cc(-c3ccccc3)nn2-c2ccccc2)cc1` are above 10 µM, below 5.79 and below 6.21.
As for `CCOc1ccccc1-n1c(C(C)N(Cc2ccccc2)C(=O)Nc2ccccc2OC)nc2ccccc2c1=O` (configuration not stated), the CC50 in data set [1] was above 6.65 µM. For the same compound, the negative logarithm of the EC50 (pEC50) in the data set with Plasmodium falciparum [2] is 6.32; in the data set on Plasmodium falciparum [3], 6.40.
In the same order, the values of `CCc1cc(C(=O)OC)c(NC(=S)NC(C)c2ccncc2)s1` (configuration not stated) are above 86.9 µM, 5.34 and 5.29.
In the same order, the values of `Brc1ccc2[nH]c3nc4ccccc4nc3c2c1` are above 100 µM, below 4.90 and below 5.23.
In the same order, the values of `Cc1ccc(NC(=O)C(C)Sc2nnc(-c3ccc(O)cc3)o2)cc1` (configuration not stated) are above 10 µM, below 5.90 and 6.22.
For the compound `O=C(NCSC1=NCCS1)c1ccccc1`, the CC50 in data set [1] is above 100 µM. Moreover, the pEC50 in the data set on Plasmodium falciparum [2] is below 4.90; in the data set on Plasmodium falciparum [3], below 5.22.
In the same order, the values of `CCOC(=O)C1=C(N)OC2=C(C(=O)CC(c3ccccc3)C2)C1c1ccc(Cl)cc1Cl` (configuration not stated) are above 10 µM, below 5.90 and below 6.22.
In the same order, the values of `Cc1cc(C)cc(-n2c(C)cc(/C=C3/SC(=Nc4ccc(Br)cc4)NC3=O)c2C)c1` are above 10 µM, 6.49 and 6.23.
In the same order, the values of `CC(C)(C)NC(=O)C(c1ccncc1)N(Cc1ccccc1Cl)C(=O)c1ccc(-c2ccccc2)[nH]1` (configuration not stated) are 67.5 µM, below 5.19 and below 5.40.
In data set [1], `CCCCCN(C(=O)c1ccc2ccccc2c1)C(CC)c1nc2ccccc2c(=O)n1-c1ccc(Cl)cc1C` (configuration not stated) registered a CC50 above 10 µM. Besides, the results for the pEC50 in the data set with Plasmodium falciparum [2] and in the data set on Plasmodium falciparum [3] were 6.02 and 6.23, respectively.
In the case of `Cc1c(C(=O)N2CCC3(CCN(C)C3)C2)cnn1-c1ncc2c(n1)-c1ccccc1SC2` (configuration not stated), the CC50 in data set [1] was above 10 µM. Moreover, the results for the pEC50 with Plasmodium falciparum [2] and in the data set with Plasmodium falciparum [3] were 5.81 and 6.22, respectively.
